Measurements taken from the NIST ThermoML archive (doi:10.1016/j.jct.2004.03.011).

Experiment: xn = mol fraction of the nth substance listed
Details: Liquid

CO [methanol] + O
excess molar volume [m3/mol]
Details | 298.15 K | 323.15 K | 348.15 K | 373.15 K | 398.15 K | 423.15 K | 448.15 K | 473.15 K | 498.15 K | 523.15 K
100 kPa, x1 = 0.25 | -7.42e-07 | -7.75e-07 | – | – | – | – | – | – | – | –
100 kPa, x1 = 0.5 | -1.014e-06 | -1.049e-06 | – | – | – | – | – | – | – | –
100 kPa, x1 = 0.75 | -7.05e-07 | -7.38e-07 | – | – | – | – | – | – | – | –
5000 kPa, x1 = 0.25 | -7.13e-07 | -7.41e-07 | -7.75e-07 | -8.26e-07 | -8.9e-07 | -9.81e-07 | -1.223e-06 | -1.902e-06 | – | –
5000 kPa, x1 = 0.5 | -9.63e-07 | -9.91e-07 | -1.022e-06 | -1.082e-06 | -1.146e-06 | -1.247e-06 | -1.583e-06 | -2.545e-06 | – | –
5000 kPa, x1 = 0.75 | -6.74e-07 | -7.02e-07 | -7.58e-07 | -8.14e-07 | -8.68e-07 | -9.59e-07 | -1.163e-06 | -1.736e-06 | – | –
10000 kPa, x1 = 0.25 | -6.85e-07 | -7.07e-07 | -7.33e-07 | -7.67e-07 | -8.12e-07 | -8.74e-07 | -9.78e-07 | -1.285e-06 | -2.081e-06 | –
10000 kPa, x1 = 0.5 | -9.15e-07 | -9.36e-07 | -9.61e-07 | -9.85e-07 | -1.017e-06 | -1.072e-06 | -1.246e-06 | -1.616e-06 | -2.481e-06 | –
10000 kPa, x1 = 0.75 | -6.44e-07 | -6.7e-07 | -7.12e-07 | -7.46e-07 | -7.89e-07 | -8.43e-07 | -9.16e-07 | -1.12e-06 | -1.949e-06 | –
20000 kPa, x1 = 0.25 | -6.27e-07 | -6.4e-07 | -6.5e-07 | -6.6e-07 | -6.68e-07 | -6.78e-07 | -7.11e-07 | -8e-07 | -8.98e-07 | -1.217e-06
20000 kPa, x1 = 0.5 | -8.31e-07 | -8.38e-07 | -8.45e-07 | -8.51e-07 | -8.57e-07 | -8.64e-07 | -8.73e-07 | -8.91e-07 | -9.52e-07 | -1.421e-06
20000 kPa, x1 = 0.75 | -5.93e-07 | -6.05e-07 | -6.23e-07 | -6.44e-07 | -6.56e-07 | -6.65e-07 | -6.88e-07 | -7.38e-07 | -8.16e-07 | -1.204e-06
30000 kPa, x1 = 0.25 | -5.75e-07 | -5.74e-07 | -5.73e-07 | -5.71e-07 | -5.68e-07 | -5.65e-07 | -5.62e-07 | -5.58e-07 | -5.54e-07 | -5.47e-07
30000 kPa, x1 = 0.5 | -7.62e-07 | -7.51e-07 | -7.38e-07 | -7.26e-07 | -7.09e-07 | -6.92e-07 | -6.64e-07 | -6.29e-07 | -5.87e-07 | -5.46e-07
30000 kPa, x1 = 0.75 | -5.53e-07 | -5.49e-07 | -5.37e-07 | -5.28e-07 | -5.19e-07 | -5.12e-07 | -4.93e-07 | -4.65e-07 | -4.28e-07 | -3.91e-07
40000 kPa, x1 = 0.25 | -5.29e-07 | -5.2e-07 | -5.12e-07 | -5.07e-07 | -4.94e-07 | -4.81e-07 | -4.64e-07 | -4.41e-07 | -4.12e-07 | -3.76e-07
40000 kPa, x1 = 0.5 | -7.02e-07 | -6.85e-07 | -6.67e-07 | -6.47e-07 | -6.14e-07 | -5.71e-07 | -5.13e-07 | -4.66e-07 | -4.01e-07 | -3.36e-07
40000 kPa, x1 = 0.75 | -5.14e-07 | -5.02e-07 | -4.81e-07 | -4.58e-07 | -4.35e-07 | -4.2e-07 | -3.86e-07 | -3.3e-07 | -2.7e-07 | -2.01e-07
50000 kPa, x1 = 0.25 | -4.85e-07 | -4.75e-07 | -4.64e-07 | -4.52e-07 | -4.33e-07 | -4.13e-07 | -3.89e-07 | -3.59e-07 | -3.26e-07 | -2.77e-07
50000 kPa, x1 = 0.5 | -6.49e-07 | -6.32e-07 | -6.06e-07 | -5.81e-07 | -5.37e-07 | -4.75e-07 | -4.04e-07 | -3.42e-07 | -2.68e-07 | -1.97e-07
50000 kPa, x1 = 0.75 | -4.65e-07 | -4.55e-07 | -4.4e-07 | -4.14e-07 | -3.8e-07 | -3.49e-07 | -3e-07 | -2.37e-07 | -1.6e-07 | -8.4e-08
60000 kPa, x1 = 0.25 | -4.61e-07 | -4.39e-07 | -4.23e-07 | -4.05e-07 | -3.83e-07 | -3.56e-07 | -3.27e-07 | -2.9e-07 | -2.45e-07 | -1.86e-07
60000 kPa, x1 = 0.5 | -6.02e-07 | -5.84e-07 | -5.58e-07 | -5.21e-07 | -4.75e-07 | -4.01e-07 | -3.18e-07 | -2.41e-07 | -1.61e-07 | -8.4e-08
60000 kPa, x1 = 0.75 | – | -4.28e-07 | -4.06e-07 | -3.72e-07 | -3.33e-07 | -2.84e-07 | -2.23e-07 | -1.58e-07 | -8.4e-08 | -5e-09
